Earlier results as cited in paper PMC8763792, “Pharmacokinetic/Pharmacodynamic Based Breakpoints of Polymyxin B for Bloodstream Infections Caused by Multidrug-Resistant Gram-Negative Pathogens” (Frontiers in Pharmacology, 2022).
Read-outs that look alike come from different tables or passages of the source. Positions of bridges follow the written chain, without caps; N, C: chain ends. Non-standard residues stand in square brackets, D forms with d. Residues, ends and D or L forms follow the SMILES beside them. *: point of attachment. X1 = CC[C@H](C)CCCCC(=O)*; Dab = NCC[C@H](N)C(=O)O

Key:
[1] = test system: extensively-drug resistant Gram-negative bacteria; conditions: polymyxin B-based regimens 100-200 mg/day, ≥5 days; bloodstream infection; ref Zhao et al., 2020
Source text: This is in agreement with othe ...

K. pneumoniae = conditions: dash in Table S1 explained, ref Landersdorfer, C.B., 2018
Source text: Supplement DataSheet1.zip/Table 1.DOCX, table 1: Table S1.

[2] = Procedure: The area under the unbound concentration-time curve over 24 h to the MIC ratio (fAUC0–24h/MIC) is the most predictive PK/PD index for polymyxins ([Tam et al., 2005]; [Bergen et al., 2008]; [Bergen et al., 2010]; [Cheah et al., 2015]; [Landersdorfer et al., 2018]). PK/PD targets of 1-log10 CFU and 2-log10 CFU reductions in colony forming units (CFU)/thigh were derived from dose-fractionation studies of polymyxin B (K. pneumoniae) and colistin (P. aeruginosa and A. baumannii) in murine thigh infection models (Supplementary Table S1; [Cheah et al., 2015]; [Landersdorfer et al., 2018]). Given poly ... || The recommended dose of intravenously administered polymyxin B throughout much of the world is 1.5–2.5 mg/kg/day with a loading dose of 2–2.5 mg/kg ([Tsuji et al., 2019]). In China, the only brand of polymyxin B currently available has a recommended intravenous dose of 50–100 mg/day (Polymyxin B for injection ([Daily Med, 2017]), equivalent to 0.83–1.66 mg/kg/day (0.42–0.83 mg/kg/12 h) for a 60 kg patient. Importantly, [Lakota et al. (2018)] proposed that for pathogens with MICs ≤2 mg/L, the target AUC0–24h,ss for polymyxin B should be 50–100 mg h/L. In our study, the polymyxin B AUC0–24h,ss a ...
[3] = critically-ill patients, ref Sandri et al., 2013, Nation et al., 2017
Procedure: Removal of the “susceptible” interpretation category for polymyxins by CLSI was driven primarily by lung infection data ([He et al., 2013]; [Landersdorfer et al., 2018]). […] For bloodstream infections, the average steady-state concentrations (C ss,avg) achieved with intravenously administered polymyxin B (0.45–3.38 mg/kg/day) or CMS (2–18 MIU/day) are 2–3 mg/L (polymyxin B and colistin) in critically-ill p ...

Enterobacteriaceae = conditions: 54,476 isolates, 45 nations, 1997-2016; ref Diekema et al., 2019
Source text: (§1) However, the success of this regimen will depend on regional susceptibility data. According to the SENTRY antimicrobial surveillance program for bloodstream infections (data collected from 45 nations including China between 1997 and 2016) ([Diekema et al., 2019]), the MIC90 of colistin for P. aeruginosa (7,107 isolates), A. baumannii or A. calcoaceticus ...

[4] = test system: A. baumannii or A. calcoaceticus; conditions: 3,124 isolates, 45 nations, 1997-2016; ref Diekema et al., 2019
Source text: as §1

P. aeruginosa = conditions: 7,107 isolates, 45 nations, 1997-2016; ref Diekema et al., 2019
Source text: as §1

## CC[C@H](C)CCCCC(=O)N[C@@H](CCN)C(=O)N[C@H](C(=O)N[C@@H](CCN)C(=O)N[C@H]1CCNC(=O)[C@H]([C@@H](C)O)NC(=O)[C@H](CCN)NC(=O)[C@H](CCN)NC(=O)[C@H](CC(C)C)NC(=O)[C@@H](Cc2ccccc2)NC(=O)[C@H](CCN)NC1=O)[C@@H](C)O [polymyxin B] (X1-[Dab]T[Dab][Dab][Dab][dF]L[Dab][Dab]T; lactam 4-C (inferred); N-terminus assumed)
[1]
  28-day all-cause mortality: 41.0%
  Clearance rate of microorganisms: 65.2%
  Overall effectiveness (cure or improvement): 59.0%
K. pneumoniae
  PK/PD target fAUC0-24h/MIC, 2-log10 CFU killing: unable to produce a 2-log10 CFU decrease
[2]; plasma, ref Sandri et al., 2013
  Unbound fraction (f) in plasma: 42%
[2]; ref Zavascki et al., 2008
  Protein binding: 78.5–92.4%
[3]; intravenous polymyxin B 0.45-3.38 mg/kg/day
  Average steady-state concentration (Css,avg): 2000 to 3000 ng/mL

## colistin
Enterobacteriaceae
  MIC90: > 4 µg/mL
[4]
  MIC90: 2 µg/mL
P. aeruginosa
  MIC90: 2 µg/mL
[3]; colistin after intravenous CMS 2-18 MIU/day
  Average steady-state concentration (Css,avg): 2000 to 3000 ng/mL
